Test results: PubChem BioAssay (NCI)
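All cell lines were grown in 96-well plates and treated with compound for 48 hours. Here, GI50 denotes the concentration required for 50% inhibition of growth. At the TGI there is no net growth.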

Legend:
Experiment in all cases: NCI-60 cell line screen, 48 h
[1] = system: KM20L2 colon
[2] = system: DMS 273 small cell lung
[3] = system: HOP-18 NSCLC
[4] = system: M19-MEL melanoma
[5] = system: DMS 114 small cell lung
[6] = system: RXF-631 renal
[7] = system: XF 498 CNS

For CCOC(=O)C1CCn2c(nc3c2c(=O)n(C)c(=O)n3C)S1 (stereo unspecified), the TGI [1] was > 100 µM, the TGI [2] was > 100 µM and the TGI [3] was > 100 µM.
In the case of C[C@]12CC[C@@H]3c4ccccc4CC[C@H]3[C@@H]1CC[C@@H]2O, the TGI [1] is reported as > 100 µM, the TGI [4] is reported as > 100 µM and the TGI [2] is reported as > 100 µM.
For C/C(=N\NC(=O)c1cccnc1)c1cccc(/C(C)=N/NC(=O)c2cccnc2)n1, the TGI [1] was > 100 µM, the TGI [4] was 68.6 µM and the GI50 [5] was 2.7 µM. For the same molecule, the TGI [5] was 15.9 µM, the GI50 [2] was 5.02 µM and the TGI [2] was 25.5 µM. For the same molecule, the GI50 [3] was 1.06 µM and the TGI [3] was 6.15 µM.
CC(Sc1ccccc1)C(CO)(CO)[N+](=O)[O-] (stereo unspecified) was tested, and the TGI [1] was 31.7 µM, the TGI [4] was 30.9 µM and the TGI [5] was 32.5 µM. For the same molecule, the TGI [2] was > 100 µM and the TGI [3] was 45.6 µM.
COC(=O)C1C(C)N1C (stereo unspecified) was tested, and the TGI [4] was > 100 µM, the TGI [5] was > 100 µM and the TGI [6] was > 100 µM. For the same molecule, the TGI [7] was > 100 µM and the TGI [2] was > 100 µM.
CC(=O)N(C)c1ccc2c(ccc[n+]2[O-])c1[N+](=O)[O-] was tested, and the TGI [1] was > 100 µM, the TGI [4] was > 100 µM and the TGI [5] was > 100 µM. The TGI [6] was > 100 µM, the TGI [7] was > 100 µM and the TGI [2] was > 100 µM. For the same molecule, the TGI [3] was > 100 µM.
